Assay results reported in article PMC12274840 (The Journal of Biological Chemistry, 2025).
Read-outs that look alike come from different tables or passages of the source.

System: E. coli KA797 cells carrying BlaC position 105 library
Assay type: cell-based, Escherichia coli
Details: ampicillin; for Fi AMP AVG: average of replicates; for Fi AMP 1: replicate 1; for Fi AMP 2: replicate 2; for Fi AMP 3: replicate 3

CC1(C)S[C@@H]2[C@H](NC(=O)[C@H](N)c3ccccc3)C(=O)N2[C@H]1C(=O)O [ampicillin]
Significance (Fi AMP AVG) (AA 105 Ala): +
Fi AMP AVG (AA 105 Ala): 0.883
Fi AMP 1 (AA 105 Ala): 0.406
Fi AMP 2 (AA 105 Ala): 1.100
Fi AMP 3 (AA 105 Ala): 1.141
Fi AMP AVG (AA 105 Arg): 0.475
Fi AMP 1 (AA 105 Arg): 0.818
Fi AMP 2 (AA 105 Arg): -0.366
Fi AMP 3 (AA 105 Arg): 0.972
Fi AMP AVG (AA 105 Asn): -0.118
Fi AMP 1 (AA 105 Asn): -0.339
Fi AMP 2 (AA 105 Asn): -0.227
Fi AMP 3 (AA 105 Asn): 0.211
Fi AMP AVG (AA 105 Asp): 0.229
Fi AMP 1 (AA 105 Asp): 0.470
Fi AMP 3 (AA 105 Asp): -0.012
Significance (Fi AMP AVG) (AA 105 Cys): +
Fi AMP AVG (AA 105 Cys): 0.500
Fi AMP 1 (AA 105 Cys): 0.488
Fi AMP 2 (AA 105 Cys): 0.257
Fi AMP 3 (AA 105 Cys): 0.755
Fi AMP AVG (AA 105 Gln): 0.694
Fi AMP 3 (AA 105 Gln): 0.694
Fi AMP AVG (AA 105 Glu): 0.120
Fi AMP 1 (AA 105 Glu): -0.486
Fi AMP 2 (AA 105 Glu): 1.183
Fi AMP 3 (AA 105 Glu): -0.337
Fi AMP AVG (AA 105 Gly): 0.342
Fi AMP 1 (AA 105 Gly): 0.540
Fi AMP 2 (AA 105 Gly): -0.133
Fi AMP 3 (AA 105 Gly): 0.619
Significance (Fi AMP AVG) (AA 105 His): +
Fi AMP AVG (AA 105 His): 2.187
Fi AMP 1 (AA 105 His): 2.095
Fi AMP 2 (AA 105 His): 2.262
Fi AMP 3 (AA 105 His): 2.205
Fi AMP AVG (AA 105 Ile (WT)): 0.000
Fi AMP 1 (AA 105 Ile (WT)): 0.000
Fi AMP 2 (AA 105 Ile (WT)): 0.000
Fi AMP 3 (AA 105 Ile (WT)): 0.000
Fi AMP AVG (AA 105 Leu): 0.259
Fi AMP 1 (AA 105 Leu): 0.406
Fi AMP 2 (AA 105 Leu): -0.033
Fi AMP 3 (AA 105 Leu): 0.405
Fi AMP AVG (AA 105 Lys): 0.741
Fi AMP 1 (AA 105 Lys): 0.741
Fi AMP AVG (AA 105 Met): 0.434
Fi AMP 1 (AA 105 Met): 0.165
Fi AMP 2 (AA 105 Met): 0.714
Fi AMP 3 (AA 105 Met): 0.423
Significance (Fi AMP AVG) (AA 105 Phe): +
Fi AMP AVG (AA 105 Phe): 3.116
Fi AMP 1 (AA 105 Phe): 3.353
Fi AMP 2 (AA 105 Phe): 2.935
Fi AMP 3 (AA 105 Phe): 3.061
Fi AMP AVG (AA 105 Pro): 0.423
Fi AMP 1 (AA 105 Pro): 0.675
Fi AMP 2 (AA 105 Pro): 0.012
Fi AMP 3 (AA 105 Pro): 0.583
Fi AMP AVG (AA 105 Ser): 0.267
Fi AMP 1 (AA 105 Ser): 1.268
Fi AMP 2 (AA 105 Ser): -0.404
Fi AMP 3 (AA 105 Ser): -0.062
Fi AMP AVG (AA 105 Thr): 0.222
Fi AMP 1 (AA 105 Thr): -0.283
Fi AMP 2 (AA 105 Thr): 0.921
Fi AMP 3 (AA 105 Thr): 0.029
Significance (Fi AMP AVG) (AA 105 Trp): +
Fi AMP AVG (AA 105 Trp): 3.126
Fi AMP 1 (AA 105 Trp): 3.329
